From PMC5400251, “Effect of quinoline based 1,2,3-triazole and its structural analogues on growth and virulence attributes of Candida albicans” (PLoS ONE, 2017)
Converted amounts (≈) assume the structure as drawn. Where two headings read alike, the source gives them in different places.

Experiments:
[1] = tested on: C. albicans D27 (FLC-susceptible); assay: Disk diffusion assay; type: cell-based; details: 48 h
Description: (§1) Disk diffusion assay was performed using C. albicans ATCC 90028 (standard), the two clinical isolates, C. albicans D27 (FLC-susceptible), and C. albicans D15.9 (FLC-resistant) for the lead inhibitors 3a and 3b. The C. albicans cells were inoculated into liquid SD medium and grown over night at 37°C. The cells were then centrifuged at 3000 rpm for 5 min, washed three times with PBS and then suspended in PBS again. Approximately, 10^5 cells/mL were inoculated into molten SD agar medium at 42°C and poured into 100-mm-diameter petriplates. Sterilized 4 mm disks of Whatman paper were placed on solid agar and 1, 2, and 4 μL of 3a and 2, 4, and 8 μL of 3b from the stock solution of 10 mg/mL were spotted on the disk. […] The diameter of zone of inhibition (ZOI) was recorded in millimetres after 48 h and was compared with that of control. This experiment was repeated thrice and values were shown in terms of mean ±standard error of mean.

[2] = tested on: C. albicans ATCC 90028 (Standard); assay: Disk diffusion assay; type: cell-based; details: 48 h
Description: as §1

[3] = tested on: C. albicans D15.9 (FLC-resistant); assay: Disk diffusion assay; type: cell-based; details: 48 h
Description: as §1

[4] = tested on: C. albicans D15.9 (FLC-resistant clinical isolate); assay: Broth dilution IC50 / MIC determination; type: cell-based; details: Candida albicans; for IC50: 24 h, read-out: Anti-Candida Activity (IC50± S.D.) C. albicans D15.9
Description: Broth dilution technique was employed to determine the IC50 values of all the synthesized 1,2,3 triazole derivatives (3a-c) against C. albicans ATCC 90028, C. glabrata ATCC 90030, C. tropicalis ATCC 750 and four clinical isolates of C. albicans namely D27, D31, D39 (FLC-sensitive) and D15.9 (FLC-resistant). The strains were maintained on yeast extract:peptone:dextrose ([…]) nutrient agar (2.5%) slants at 4°C. The test compounds were dissolved in DMSO with less than 4% concentration of it in the final test volume. Different concentrations (1000… 7.8 μg/mL) of test compounds in Sabouraud dextrose (SD) broth medium were dispensed into the wells, then inoculated with the test organism with approx. 2.5 × 10^3 cells/mL and incubated at 37°C for 24 h. After incubation period, the optical density was measured at 600 nm by using Thermo Scientific Multiskan Go plate reader. […] All the experiments were done in triplicate at separate times.

Hemolytic assay = type: cell-based; details: human, human red blood cells (erythrocyte suspension), 37°C, read-out: Hemolysis of hRBCs
Description: Human blood from a healthy individual was collected in tubes containing EDTA as anti-coagulant. The erythrocytes were harvested by centrifugation for 10 min at 2000 rpm and 20°C, washed three times in PBS. To the pellet, PBS was added to yield a 10% (v/v) erythrocytes/PBS suspension. The 10% suspension was then diluted 1:10 in PBS. From each suspension, 100 μL was added in triplicate to 100 μL of a different dilution series of test compounds in the same buffer in micro centrifuge tubes. […] The tubes were incubated for 1 h at 37°C and then centrifuged for 10 min at 2000 rpm and 20°C. From the supernatant, 150 μL was transferred to a flat-bottomed microtiter plate (Tarson), and the absorbance was measured spectrophotometrically at 450 nm. The hemolysis percentage was calculated by following equation: %Hemolysis=[(A450oftestcompoundtreatedsample−A450ofbuffertreatedsample)÷(A450of1%TritonX−100treatedsample−A450ofbuffertreatedsample)]×100

phospholipase secretion [5] = assay: Phospholipase assay (egg yolk agar, Pz value); type: cell-based, C. albicans ATCC 90028
Description: (§2) Phospholipase activity was performed using the method of Price et al. (1982) with minor modifications. The cells were incubated at 37°C for 18 h and then centrifuged at 3000 rpm for 5 min. The pellet obtained was washed with PBS twice to remove the residual culture medium. […] Volumes of 1 μL were placed at equidistant points on phospholipase agar media plates (1% peptone; 3% glucose; 5.73% NaCl; 0.055% CaCl2 with 10% (v/v) egg yolk emulsion) and incubated at 37°C for 4 days. The secretion of phospholipases was determined by the formation of opaque zones due to precipitation around the yeast colonies. The assay was conducted in duplicate. Pz values were calculated as follows: Pzvalue=diameterofcolony/diameterofcolony+diameterofzoneofprecipitaion

proteinase secretion = assay: Proteinase assay (BSA agar, Pz value); type: cell-based, C. albicans ATCC 90028; details: at MIC, 1 h exposure
Description: Following incubation, 1.5 mL of the yeast culture was taken into micro centrifuge tubes and centrifuged at 3000 rpm, for 5 min. The pellet obtained was washed by phosphate buffer saline (PBS) twice to remove the residual medium. […] Volumes of 1μL were placed at equidistant points on proteinase agar medium (0.1% yeast nitrogen base w/o amino acids; 0.145% ammonium sulfate; 2% glucose with 0.2% (w/v) BSA fraction V mixed into agar at ∼40°C) and incubated at 37°C for 3 days. The experiment was performed in duplicate. Secreted proteinase enzyme will degrade BSA and form zone of clearance around the yeast colonies. An index (Pz value) was used to represent the extent of proteinase activity by different strains of C. albicans. A Pz value of 1.0 depicts no enzyme activity. It was calculated as follows: Pzvalue=diameterofcolony/diameterofcolony+diameterofzoneofdegradation

ergosterol biosynthesis = assay: Ergosterol estimation assay
phospholipase secretion [6] = assay: Phospholipase assay (egg yolk agar, Pz value); type: cell-based, C. albicans D27 (FLC-susceptible)
Description: as §2

[7] = Candida albicans, 40 μg per disk
[8] = Candida albicans, ATCC90028, 20 μg per disk
[9] = Candida albicans, ATCC90028, 40 μg per disk

SMILES	zone of inhibition at 40 µg/disc [1, 7]	zone of inhibition at 20 µg/disc [2, 8]	zone of inhibition at 40 µg/disc [2, 9]	zone of inhibition at 20 µg/disc ([3]; Candida albicans)	zone of inhibition at 40 µg/disc ([3]; Candida albicans)	MIC [4]	IC50 [4]	hemolysis at 1 h, 500 μg/mL (Hemolytic assay)	Decrease of phospholipase secretion (phospholipase secretion [5]; at MIC, 1 h exposure)	Decrease of phospholipase secretion (phospholipase secretion [5]; at MIC/4, 1 h exposure)	Decrease of proteinase secretion (proteinase secretion)	Mean decrease in total ergosterol content (ergosterol biosynthesis; at MIC/4, 16 h)	Decrease of phospholipase secretion (phospholipase secretion [6]; at MIC, 1 h exposure)	Decrease of phospholipase secretion (phospholipase secretion [6]; at MIC/4, 1 h exposure)	further results
c1ccc(Cn2cc(COc3cccc4cccnc34)nn2)cc1 [Compound 3a]	26 mm	35 mm	39 mm	26 mm	32 mm	25 µg/mL (≈ 79 µM)	2.3 ± 0.05 µg/mL (≈ 7.27 µM)	4.76%	43%	40%	21%	30%	42%	25%	Zone of Inhibition ([1]; 40 μg per disk): 26± 0.92 mm; zone of inhibition at 20 µg/disc ([1]; Candida albicans): 19 ± 0.95 mm; zone of inhibition at 10 µg/disc ([1]; Candida albicans, 10 μg per disk): 14 ± 0.7 mm; Zone of Inhibition ([2]; 20 μg per disk): 35± 0.97 mm; Zone of Inhibition ([2]; 40 μg per disk): 39± 1.12 mm; zone of inhibition at 10 µg/disc ([2]; Candida albicans, ATCC90028, 10 μg per disk): 28 ± 0.72 mm; Zone of Inhibition ([3]; 20 μg per disk): 26± 073 mm; Zone of Inhibition ([3]; 40 μg per disk): 32± 1.28 mm; zone of inhibition at 10 µg/disc ([3]; Candida albicans): 20 ± 0.21 mm; Mean decrease in total ergosterol content (ergosterol biosynthesis; above MIC/2, 16 h): 100%
Clc1ccc(OCc2cn(Cc3ccccc3)nn2)c2ncccc12 [Compound 3b, 8-((1-Benzyl-1H-1,2,3-triazol-4-yl)methoxy)-5-chloroquinoline]	18 ± 0.87 mm	18 ± 0.72 mm	25 ± 0.9 mm	15 ± 0.21 mm	18 ± 0.09 mm	250 µg/mL (≈ 713 µM)	32.8 ± 1.25 µg/mL (≈ 93.5 µM)	26.8%	68%	32%	14%	23%	46%	34%	Zone of Inhibition ([1]; 80 μg per disk): 26± 1.17 mm; zone of inhibition at 20 µg/disc ([1]; Candida albicans, 20 μg per disk, read-out: Zone of Inhibition): 16 ± 0.54 mm; zone of inhibition at 80 µg/disc ([1]; Candida albicans, 80 μg per disk): 26 mm; Zone of Inhibition ([2]; 80 μg per disk): 29± 0.93 mm; zone of inhibition at 80 µg/disc ([2]; Candida albicans, ATCC90028, 80 μg per disk): 29 mm; Zone of Inhibition ([3]; 80 μg per disk): 22± 0.79 mm; zone of inhibition at 80 µg/disc ([3]; Candida albicans): 22 mm; Phospholipase activity after treatment (phospholipase secretion [5]; Fig 4 legend): No phospholipase activity; Decrease in total ergosterol content (ergosterol biosynthesis; at MIC, 16 h): 100%; Decrease in total ergosterol content (ergosterol biosynthesis; at MIC/2, 16 h): 98%
